Measured values taken from patent publication US20120328521A1, “FORMULATIONS SUITABLE FOR PET IMAGING WITH HYDROPHOBIC PET AGENTS” (PIRAMAL IMAGING SA, priority 2009, published 2012).

What was measured:
Type in all cases: physicochemical
[1] = Particulate matter testing of formulation I (HIAC Royco Liquid Particle Counting System); details: up to 8 hours
Protocol: Solubility of the active was tested by visual inspection using an illuminated magnifying glass with black background and confirmed by experiments assessing particulate matter using the HIAC Royco, Liquid Particle Counting System, Model 9703.
The formation of particles was assessed using the HIAC Royco, Liquid Particle Counting System, Model 9703 and in addition to the channels normally inspected (10 μm and 25 μm), also the smaller channels (2 μm and 5 μm) were used to assess the stability of the formulation. The formulation I was sterile filtered and inspected at timepoint 1 hour and 8 hours.
Table 2 indicates the results of particulate matter testing up to 8 hours of 3 individually manufactured batches
Since the handling of the solutions was made under normal laboratory conditions, the particle background measured in the sterile filtered solutions have an exogenous nature.

[2] = Adsorption of compound 1 onto sterile filters (assay in filtrate of formulation II)
Protocol: Formulation II comprising compound 1 was prepared as indicated above and filtered using selected sterile filters. Adsorption of compound 1 was determined before and after filtration using different filter types. Table 3 indicates the results of adsorption experiments using different filters.
Only hydrophobic filters show a low amount of compound 1 adsorbed onto the filter material.

[3] = Stability of formulation comprising HCl salt of compound 1 for 8 hours at room temperature (HPLC assay); details: for assay of HCl salt of compound 1, batch 01 / assay of HCl salt of compound 1, batch 02 / assay of HCl salt of compound 1, batch 03 / assay of HCl salt of compound 1, mean [%]: formulation I, 5.51 μg/mL; for assay of HCl salt of compound 1, mean [%]: mean of 3 batches
Protocol: Since solutions of stilbenes are light sensitive, the solutions were stored under light protection.
A solution was prepared containing 5.51 μg/mL HCl salt of compound 1 as in formulation I. Assay was analysed after different timepoints. Three individual batches were prepared and analysed for assay and particulate matter. From these solutions samples were taken and analysed by HPLC.
Table 1 indicates the results of stability testing up to 8 hours of 3 individually manufactured batches.

## CNc1ccc(/C=C/c2ccc(OCCOCCOCCF)cc2)cc1 [Compound 1]
[1]
  dissolution state / precipitation in formulation: remains dissolved and is not precipitating
[2]; Millipore Millex 0.2 μm, Order No SLGV013SL, PVDF, hydrophobic material rendered hydrophilic by surface modification
  Analysis of assay in filtrate: 97.3%
[2]; Sartorius Minisart 0.2 μm (blue), Order No 16534, Celluloseacetat, hydrophylic
  Analysis of assay in filtrate: 53%
[2]; Sartorius Minisart HY 0.2 μm, Order No 16596, PTFE, hydrophobic
  Analysis of assay in filtrate: 96.5%
[2]; Sartorius Minisart High Flow 0.2 μm, Order No 16532, PES, hydrophobic
  Analysis of assay in filtrate: 75%
[2]; only hydrophobic filters
  amount adsorbed onto the filter material: low amount
[3]; HCl salt, 8 hours
  chemical stability in the formulation: chemically stable
[3]; time 1 hour
  assay of HCl salt of compound 1, batch 01: 100.2%
  assay of HCl salt of compound 1, batch 02: 98.3%
  assay of HCl salt of compound 1, batch 03: 96.9%
  assay of HCl salt of compound 1, mean [%]: 98.5%
[3]; time 2 hours
  assay of HCl salt of compound 1, batch 01: 101.2%
  assay of HCl salt of compound 1, batch 02: 98.4%
  assay of HCl salt of compound 1, batch 03: 97.17%
  assay of HCl salt of compound 1, mean [%]: 98.9%
[3]; time 3 hours
  assay of HCl salt of compound 1, batch 01: 101.1%
  assay of HCl salt of compound 1, batch 02: 98.7%
  assay of HCl salt of compound 1, batch 03: 96.2%
  assay of HCl salt of compound 1, mean [%]: 98.7%
[3]; time 4 hours
  assay of HCl salt of compound 1, batch 01: 101.2%
  assay of HCl salt of compound 1, batch 02: 98%
  assay of HCl salt of compound 1, batch 03: 97.4%
  assay of HCl salt of compound 1, mean [%]: 98.9%
[3]; time 5 hours
  assay of HCl salt of compound 1, batch 01: 101.5%
  assay of HCl salt of compound 1, batch 02: 98.6%
  assay of HCl salt of compound 1, batch 03: 96.6%
  assay of HCl salt of compound 1, mean [%]: 98.9%
[3]; time 6 hours
  assay of HCl salt of compound 1, batch 01: 101.5%
  assay of HCl salt of compound 1, batch 02: 98.7%
  assay of HCl salt of compound 1, batch 03: 95.7%
  assay of HCl salt of compound 1, mean [%]: 98.6%
[3]; time 7 hours
  assay of HCl salt of compound 1, batch 01: 101.7%
  assay of HCl salt of compound 1, batch 02: 98.5%
  assay of HCl salt of compound 1, batch 03: 96.5%
  assay of HCl salt of compound 1, mean [%]: 98.9%
[3]; time 8 hours
  assay of HCl salt of compound 1, batch 01: 102.7%
  assay of HCl salt of compound 1, batch 02: 98.7%
  assay of HCl salt of compound 1, batch 03: 96.5%
  assay of HCl salt of compound 1, mean [%]: 99.3%
